From patent US20170303574A1, “COMPOUNDS, COMPOSITIONS, AND METHODS FOR MODULATING SWEET TASTE” (Chromocell Corporation, priority 2014, published 2017)
Marks after values point to notes of the source that are not given here.

Tests used:
Type in all cases: in vivo, humans
[1] = test system: perception of sweet taste of high fructose cornsyrup (HFCS); experiment: 2AFC assessment of increase in perceived sweetness of HFCS solution; details: for Compound concentration with positive 2AFC results: in 5brix HFCS test sample; for Fold increase in perceived sweetness: positive control concentration surpassed divided by test sample concentration (5brix HFCS), approximate; for Sweetener Concentration of positive control surpassed by test sample: test sample 5brix HFCS plus compound, 2AFC sip and spit, panelists n≧15
Procedure: Effect of test compounds on the perception of sweet taste of high fructose cornsyrup (HFCS) two-alternative forced choice method (2AFC). The effect of the test compounds on the perception of the sweet taste of an aqueous solution of sweetener in humans was evaluated using a two-alternative forced choice “sip and spit” method (2AFC). The aqueous sweetener solutions were prepared by adding sucrose equivalent (SE) quantities of high fructose corn syrup (HFCS) (by weight), to water to achieve the desired concentration. The aqueous solutions ranged in pH from pH 2.5-pH 7. Compounds of the invention were first prepared as a 500-fold concentrated stock solution in 100% ethanol. These concentrated stocks were then added to the aqueous sweetener solutions to result in a final ethanol concentration of 0.2%. The control (positive and negative) samples were also normalized to 0.2% ethanol. This level of ethanol was not seen to contribute any perceived sweetness. The 2AFC test used for compound evaluation was a double blinded and randomized test where taste panelists (n≧15) evaluate a pair of sweetener solutions at a time—one sample contains aqueous sweetener solution plus compound (i.e. test) while the other contains aqueous sweetener solution at higher concentration without compound (i.e. positive control). Each test sample was compared against a positive control. For example, if the test sample contained 1× sweetener concentration with compound (e.g. 5brix HFCS with compound), the positive control sample contained a 1.1× sweetener concentration (e.g. 5.5brix HFCS without compound). […] Panelists were instructed not to eat or drink (except water) for at least 1 hour before the test. During the test, panelists were instructed to sip each sample, swirl it around their mouth and then expectorate. After tasting each sample in the pair, panelists were instructed to record the sample that is “sweeter” in taste. Panelists cleansed their palates by rinsing with water, eating a cracker and waiting for an interval of about 5 minutes. All samples were tasted at ambient temperatures. Data were analyzed using binomial probabilities. Approximate levels of sweetness enhancement in column 5 of Table 2 were calculated as follows: Approximate levels of sweetness enhancement=Sweetener concentration of positive control surpassed by the test sample, divided by sweetener concentration for compound-containing sample (e.g.1.3×=6.5brix HFCS/5brix HFCS).

[2] = test system: perception of non-sweet taste attributes (such as bitterness); experiment: Descriptive analysis (DA) panel: non-sweet taste attributes in lemon lime matrix (spider plots); details: lemon-lime matrix sweetened with HFCS, pH 7
Procedure: The effect of the test compound on the perception of non-sweet taste attributes (such as bitterness) in a flavored aqueous environment, in the presence of carbohydrate sweeteners, was evaluated using a descriptive analysis methodology with a group of trained panelists, as follows. This occurred as part of DA assessment described previously in Example 3.
The trained panel was then used for a descriptive analysis assessment for Compound 2 and Compound 5 in lemon lime flavored matrix, sweetened with high fructose corn syrup (HFCS), at a test dose of 50 ppm and 20 ppm, respectively.
(§1) All control and variant samples were prepared as described in Example 3. Both control (flavored sweetener solutions without compound) and variant (flavored sweetener solutions with compound) samples were blinded and randomized. Samples were presented in monadic order and panelists were instructed to sip the sample, swirl it in their mouths and expectorate. A total of 7 attributes including sweet, bitter, sour, licorice and thickness were assessed for each sample. After each sample assessment, panelists performed a standard palate cleansing protocol, and observed an inter-sample interval time (ISI). All samples were evaluated at ambient temperatures.
Data was collected and exported electronically utilizing FIZZ sensory software. […]

[3] = test system: perception of the sweet taste in a flavored aqueous environment; experiment: Descriptive analysis (DA) panel: sweetness enhancement in HFCS sweetened lemon lime matrix; details: for Fold enhancement of sweetness perception as compared to control sample: vs negative control; for Perceived sweetness (spider plot, vs control sweetener solution): lemon-lime matrix sweetened with HFCS, pH 7
Procedure: The effect of the test compound on the perception of the sweet taste in a flavored aqueous environment, in the presence of carbohydrate sweeteners, was evaluated using a descriptive analysis methodology with a group of trained panelists, as follows.
The panel used in this example was trained to reference sweet attributes in an absolute manner, such that a particular concentration of sweetener is always measured by the panelists at the same point using a 15 cm line scale where each cm represents a 1% increase in sucrose to cover the range of 0% to 15% sucrose. For the rest of the attributes, the panel was trained using a hybrid approach between descriptive analysis methods well-known to those skilled in the art.
The trained panel was then used for a descriptive analysis assessment for Compound 2 and Compound 5 in flavored lemon lime matrix. Compound 2 was assessed at a dose of 50 ppm and Compound 5 was assessed at a dose of 20 ppm for sweetness enhancement in high fructose corn syrup (HFCS) sweetened lemon lime matrix.
The flavored sweetener solutions were prepared by adding sucrose equivalent quantities of HFCS (by weight), to lemon lime matrix to achieve the desired concentration. Compound was first prepared as a 500-fold concentrated stock solution in 100% ethanol. The concentrated stocks were then added to the flavored sweetener solutions to result in a final ethanol concentration of 0.2%. The control (positive and negative) samples were also normalized to 0.2% ethanol. This level of ethanol was not seen to contribute any perceived sweetness
as §1, with “Both” for “All control and variant samples were prepared as described in Example 3. Both”, “sample. For the sweet attribute, panelists made an absolute scoring on a 15 cm line scale where each cm represents a 1% increase in sucrose to cover the range of 0% to 15% sucrose.” for “sample.”
Data was collected and exported electronically utilizing FIZZ sensory software. Data analysis was conducted using SENPAQ version 5.0 software that uses tools such as ANOVA, Fisher's LSD, correlation to determine panel performance as well as significant differences between samples and attributes.
The letter “a” indicates significant differences among the samples at 95% confidence level. Fold enhancement (increase in perceived sweetness) was calculated by dividing the DA panel average intensity score observed for a variant sample by that observed for the negative control sample.

[4] = Compound 5 @ 20 ppm in 6.67brix HFCS lemon lime matrix
[5] = Compound 2 @ 50 ppm in 7.7brix HFCS lemon lime matrix

| Structure (SMILES) | Compound concentration with positive 2AFC results [1] | Fold increase in perceived sweetness [1] | Sweetener Concentration of positive control surpassed by test sample [1] | Other attributes including astringent, licorice and bitter (spider plot, vs control) [2] | Average Sweetness Intensity Score w/ ANOVA (on 15 cm scale) [3, 4] | Fold enhancement of sweetness perception as compared to control sample [3, 4] | Perceived sweetness (spider plot, vs control sweetener solution) [3] | Average Sweetness Intensity Score w/ ANOVA (on 15 cm scale) [3, 5] | Fold enhancement of sweetness perception as compared to control sample [3, 5] |
| --- | --- | --- | --- | --- | --- | --- | --- | --- | --- |
| COc1ccc(C2CCc3ccc(O)c(C)c3O2)cc1O (racemic) [Compound 1, 2-(3-hydroxy-4-methoxyphenyl)-8-methylchroman-7-ol] | 35 ppm | >1.2X | 6brix HFCS | – | – | – | – | – | – |
| COc1ccc(C2CCc3cc(C)c(O)cc3O2)cc1O (racemic) [Compound 4, 2-(3-hydroxy-4-methoxyphenyl)-6-methylchroman-7-ol] | 20 ppm | >1.3X | 6.5brix HFCS | – | – | – | – | – | – |
| COc1ccc(C2CCc3cc(C)c(O)cc3O2)cc1O (single isomer, unassigned; (-)) [Compound 5, (−)-2-(3-hydroxy-4-methoxyphenyl)-6-methylchroman-7-ol] | 20 ppm | >1.5X | 7.5brix HFCS | observed to be significant | 9.7^a | 1.47X | significant increase in perceived sweetness | – | – |
| COc1ccc([C@@H]2CCc3ccc(O)c(C)c3O2)cc1O [Compound 2, (S)-2-(3-hydroxy-4-methoxyphenyl)-8-methylchroman-7-ol] | 50 ppm | >1.3X | 6.5brix HFCS | observed to be significant | – | – | significant increase in perceived sweetness | 10.3^a | 1.43X |
